# Test results reported in the supplement of paper PMC10307832.
# Assays:
# Assay in all cases: relative viability (nuclei count vs DMSO), 5 days (fraction); higher = more cells survive
# NCI-H1944 = test system: NCI-H1944
# How it was run: (§1)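 Relative viability divides the nuclei count in treated wells by that in vehicle wells. Lung cancer cell lines were seeded in 1536-well plates, dosed by pin tool the next day, and fixed and stained after 5 days in one step with final 0.05% Triton X-100, 1% formaldehyde and 1 ug/ml Hoechst. Dosing was a single drug or a fixed anchor-drug dose plus five library-drug doses (not always all listed) in √10 steps, and values are medians of duplicate plates imaged at 4×.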
# NCI-H1437 = test system: NCI-H1437
# How it was run: as §1
# NCI-H1650 = test system: NCI-H1650
# How it was run: as §1
# HCC-827 = test system: HCC-827
# How it was run: as §1
# RERF-LC-KJ = test system: RERF-LC-KJ
# How it was run: as §1
# NCI-H647 = test system: NCI-H647
# How it was run: as §1
# NCI-H2087 = test system: NCI-H2087
# How it was run: as §1
# NCI-H322M = test system: NCI-H322M
# How it was run: as §1
# NCI-H2405 = test system: NCI-H2405
# How it was run: as §1
# LCLC-103H = test system: LCLC-103H
# How it was run: as §1
# CAL-12T = test system: CAL-12T
# How it was run: as §1
structure (smiles),measurement,setting,value
Nc1ccn([C@@H]2O[C@H](CO)[C@@H](O)[C@@H]2O)c(=O)n1 [Cytarabine] + Cc1nc(Nc2ncc(C(=O)Nc3c(C)cccc3Cl)s2)cc(N2CCN(CCO)CC2)n1 [Dasatinib] (partner 0.075 µM),relative viability,NCI-H1944; first compound 0.005 µM,0.177
same,relative viability,NCI-H1944; first compound 0.01581 µM,0.123
same,relative viability,NCI-H1944; first compound 0.05 µM,0.117
same,relative viability,NCI-H1944; first compound 0.1581 µM,0.0903
same,relative viability,NCI-H1944; first compound 0.5 µM,0.0942
same,relative viability,NCI-H1437; first compound 0.005 µM,0.395
same,relative viability,NCI-H1437; first compound 0.01581 µM,0.26
same,relative viability,NCI-H1437; first compound 0.05 µM,0.228
same,relative viability,NCI-H1437; first compound 0.1581 µM,0.142
same,relative viability,NCI-H1437; first compound 0.5 µM,0.165
same,relative viability,NCI-H1650; first compound 0.005 µM,0.257
same,relative viability,NCI-H1650; first compound 0.01581 µM,0.234
same,relative viability,NCI-H1650; first compound 0.05 µM,0.177
same,relative viability,NCI-H1650; first compound 0.1581 µM,0.136
same,relative viability,NCI-H1650; first compound 0.5 µM,0.122
same,relative viability,HCC-827; first compound 0.005 µM,0.445
same,relative viability,HCC-827; first compound 0.01581 µM,0.397
same,relative viability,HCC-827; first compound 0.05 µM,0.4
same,relative viability,HCC-827; first compound 0.1581 µM,0.226
same,relative viability,HCC-827; first compound 0.5 µM,0.227
same,relative viability,RERF-LC-KJ; first compound 0.005 µM,0.689
same,relative viability,RERF-LC-KJ; first compound 0.01581 µM,0.646
same,relative viability,RERF-LC-KJ; first compound 0.05 µM,0.524
same,relative viability,RERF-LC-KJ; first compound 0.1581 µM,0.409
same,relative viability,RERF-LC-KJ; first compound 0.5 µM,0.281
same,relative viability,NCI-H647; first compound 0.005 µM,0.104
same,relative viability,NCI-H647; first compound 0.01581 µM,0.0553
same,relative viability,NCI-H647; first compound 0.05 µM,0.0872
same,relative viability,NCI-H647; first compound 0.1581 µM,0.0307
same,relative viability,NCI-H647; first compound 0.5 µM,0.0339
same,relative viability,NCI-H2087; first compound 0.005 µM,0.747
same,relative viability,NCI-H2087; first compound 0.01581 µM,0.712
same,relative viability,NCI-H2087; first compound 0.05 µM,0.82
same,relative viability,NCI-H2087; first compound 0.1581 µM,0.265
same,relative viability,NCI-H2087; first compound 0.5 µM,0.233
same,relative viability,NCI-H322M; first compound 0.005 µM,0.259
same,relative viability,NCI-H322M; first compound 0.01581 µM,0.272
same,relative viability,NCI-H322M; first compound 0.05 µM,0.26
same,relative viability,NCI-H322M; first compound 0.1581 µM,0.243
same,relative viability,NCI-H322M; first compound 0.5 µM,0.274
same,relative viability,NCI-H2405; first compound 0.005 µM,0.206
same,relative viability,NCI-H2405; first compound 0.01581 µM,0.17
same,relative viability,NCI-H2405; first compound 0.05 µM,0.167
same,relative viability,NCI-H2405; first compound 0.1581 µM,0.144
same,relative viability,NCI-H2405; first compound 0.5 µM,0.146
same,relative viability,LCLC-103H; first compound 0.005 µM,0.449
same,relative viability,LCLC-103H; first compound 0.01581 µM,0.507
same,relative viability,LCLC-103H; first compound 0.05 µM,0.486
same,relative viability,LCLC-103H; first compound 0.1581 µM,0.353
same,relative viability,LCLC-103H; first compound 0.5 µM,0.445
same,relative viability,CAL-12T; first compound 0.005 µM,0.302
same,relative viability,CAL-12T; first compound 0.01581 µM,0.306
same,relative viability,CAL-12T; first compound 0.05 µM,0.447
same,relative viability,CAL-12T; first compound 0.1581 µM,0.284
